The values that follow come from patent US20210322545A1 (priority 2016, published 2021).

pEC50: −log10 of the molar value. Values joined by “and” are separate entries in the source; they are usually repeats but may differ in a detail not shown here. Equal entries are not always repeated. “Also recorded” adds a separate entry of the source. Where two headings read alike, the source gives them in different places.

Data set [1] deals with intracranial CT-2A tumors. Particulars: mouse, in vivo.
Data set [2] relates to EMT6 cells. In words: cells. It counts as cell-based. Particulars: Mus musculus, EMT6, read-out: EC50 of SMC therapy.
For data set [3], the system named is SNB75 cells. The experiment in a line: cells. It counts as cell-based. Particulars: Homo sapiens, SNB-75, read-out: EC50 of SMC therapy.
In data set [4] the test system is cancer cells. It counts as cell-based.
The test system of data set [5] is VSVΔ51. The data set is classed as cell-based.
Data set [6] has as its system SNB75 cells. It counts as cell-based, human.
Data set [7] relates to EMT6 mammary tumors. It counts as in vivo, mouse.
Data set [8] relates to HT-29 tumors. The note with it: mouse, in vivo.
Data set [9] relates to CT-26 tumors. The note with it: mouse, in vivo, sc.
For data set [10], the system named is intracranial GL261 tumors. The note with it: mouse, in vivo.
The subject of data set [11] is glioblastoma cells. The data set is classed as cell-based.
The test system of data set [12] is EMT6, 4T1 or CT-2A cells. The note with it: mouse, in vivo.
The test system of data set [13] is glioma cells. It counts as cell-based.
For data set [14], the system named is intracranial CT-2A tumors. The note with it: mouse, in vivo. This is another data set of the same source.
Data set [15] relates to MM cells. It counts as cell-based.
Data set [16] relates to CD8 T-cells. It counts as cell-based, mouse.
In data set [17] the test system is cIAP1/2 and XIAP.
From the text: Cells were scraped, collected by centrifugation and lysed in RIPA lysis buffer containing a protease inhibitor cocktail (Roche, Laval, Canada). Equal amounts of soluble protein were separated on polyacrylamide gels followed by transfer to nitrocellulose membranes. […] Our rabbit anti-rat IAP1 and IAP3 polyclonal antibodies were used to detect human and mouse cIAP1/2 and XIAP, respectively. AlexaFluor680 (Invitrogen) or IRDye800 (Li-Cor, Lincoln, USA) were used to detect the primary antibodies, and infrared fluorescent signals were detected using the Odyssey Infrared Imaging System (Li-Cor).
Cells were scraped, collected by centrifugation, and lysed in RIPA lysis buffer containing a protease inhibitor cocktail (Roche). Tumors were excised, minced, and lysed as above. Equal amounts of soluble protein were separated on polyacrylamide gels followed by transfer to nitrocellulose membranes. […] Rabbit anti-rat IAP1 and IAP3 polyclonal antibodies were used to detect human and mouse cIAP1/2 and XIAP, respectively (1:5000; Cyclex Co.). AlexaFluor680 (Invitrogen) or IRDye800 (Li-Cor) (1:2500) were used to detect the primary antibodies, and infrared fluorescent signals were detected using the Odyssey Infrared Imaging System (Li-Cor).
Data set [18] concerns MPC-11 Fluc cells. Particulars: mouse, in vivo.
The test system of data set [19] is serum cytokines. The note with it: mouse, in vivo.
Method: The detection of serum proteins following combinatorial SMC and anti-PD-1 treatment was analyzed by a flow cytometry-based multiplex kit (LEGENDplex inflammation panel from Biolegend).
For data set [20], the system named is U266, MM1R and MM1S cells.
For data set [21] the following is noted: mouse, in vivo.
Data set [22] has as its system EMT6 cells. The data set is classed as cell-based, mouse.
Data set [23] concerns U266, MM1R and MM1S cells. It counts as cell-based, human.
Data set [24] relates to TNF-α. Particulars: mouse, in vivo, ip.
Data set [25] has as its system CT-2A and K1580 glioblastoma cells. The data set is classed as cell-based, mouse.
[26] abbreviates: EMT6 tumors, 50 mg/kg LCL161 oral gavage.

As to `CC[C@H](NC(=O)[C@H](C)NC)C(=O)N1C[C@@H](O)C[C@H]1Cc1c(-c2[nH]c3cc(F)ccc3c2C[C@@H]2C[C@H](O)CN2C(=O)[C@H](CC)NC(=O)[C@H](C)NC)[nH]c2cc(F)ccc12` [Birinapant], the survival result in data set [1] (ip) is reported as “significant increase in survival”.

For `CN[C@@H](C)C(=O)N[C@H](C(=O)N1CCC[C@H]1c1nc(C(=O)c2ccc(F)cc2)cs1)C1CCCCC1` [LCL161], in data set [2], the pEC50 (in general, the negative decadic logarithm of the EC50, by convention in mol/L) is below 5.60. Further, in data set [3], the pEC50 is below 5.60. For the same molecule, the “cell death by UV-inactivated conditioned media of VSVΔ51-infected cells” value in data set [4] is on record as “induced cell death only when the cells were co-treated with an SMC”. The “effect of SMC treatment on growth kinetics of VSVΔ51” value in data set [5] was “does not affect the growth kinetics”. The “effect of SMC on induction of TRAIL and TNFα by IFNβ” value in data set [6] is recorded as “potentiated the induction”. Moreover, the “tumor response, oral SMC + BCG” value in [7] (BCG intratumorally or intraperitoneally) is “significant tumor regression”. Moreover, in data set [7] (mouse, in vivo), the durable cure rate was 75%; the “durable cures of treated mice” value was 88%; the “tumor growth and survival, single agent” value is “a decrease in the rate of tumor growth and a modest extension in survival; also recorded: slightly delayed EMT6 tumor growth rates and slightly extended the survival”. In addition, in data set [7] (mouse, in vivo, ip), the cure rate amounted to 57% and the “durable cures of treated mice” value worked out at 60%. Further, the “effect on HT-29 tumors, monotherapy” value in data set [8] was “neither monotherapy had any effect”. In [9], the “tumor growth and survival, single agent” value was “modest decrease of the tumor growth rate and a slight extension of survival”. This molecule returned a durable cure rate in [10] of 33%. Also, in [11], the “death of cultured and primary glioblastoma cell lines” value is listed as “killed”; the “sensitivity of CT-2A cells to combined SMC and recombinant IFN-α” value is listed as “partially sensitive”. In addition, in data set [12], the “tumor engraftment on rechallenge of cured mice” value is “completely resistant to tumor engraftment”. Moreover, the “surface expression of PD-L1 and MHC I markers” value in data set [13] is given as “no significant impact”. For the same molecule, in data set [14], the “CD4+ and CD25+ T-cells (Treg) in tumors” value is reported as “significant decrease”; the “CD4+ cells expressing IFN-γ” value is listed as “decrease in the proportion of CD4+ cells expressing IFN-γ”; the “CD8+ T-cells expressing PD-1 in tumors” value is given as “significant increase in CD8+ T-cells expressing PD-1”. Besides, the “CD3+ and CD3+ CD8+ cells expressing PD-1” value in [14] (po, 75 mg/kg) is reported as “robust increase”. In addition, the “cIAP1 and cIAP2 protein” value in [15] is “rapid degradation of cIAP1 and cIAP2”. Also, the “CD8+ T-cells expressing TNF-α” value in data set [16] is given as “significantly increased the proportion of CD8+ T-cells expressing TNF-α”. Moreover, in data set [17] (setting [26]), the “duration of cIAP1/2 knockdown in tumors” value is reported as “at least 24 hrs” and the “duration of cIAP1/2 knockdown in tumors, in some cases (up to)” value lay within 48 to 72 h. Further, in [17] (direct intracranial injection, 10 μL of a 100 μM solution), the “IAP levels in intracranial CT-2A tumors” value is “potent down-regulation of both cIAP1/2 and XIAP proteins”. The “IAP levels in intracranial CT-2A tumors” value in data set [17] (systemic SMC, several hours after drug administration, indicative of crossing the BBB) was “degradation of cIAP1/2 proteins”. For the same molecule, in [1], the cure rate turned out to be 50%; the “cure rate upon depletion of CD4+ T-cells” value is reported as 100%; the “cure rate upon depletion of CD8+ T-cells” value is reported as “completely abrogated”; the durable cures was 86% and 55%. In [1], the “effect of IFNAR1 blocking antibody on SMC + anti-PD1 survival synergy” value was “negated the synergistic effects”, the “effect of anti-IFN-γ antibody on SMC + ICI synergy” value was “partially inhibited the synergistic effects”, the “effect of systemic TNF-α blockade on SMC + ICI efficacy” value is given as “almost a complete reversal of the efficacy” and the neurotoxicity result is “did not result in any overt neurotoxicity”. The “physical or behavioral defects in long-term survivors” value (“physical or behavioral defects” below) in [1] is “no overt physical or behavioral defects”. The expected survival rate in data set [1] (po) came to 86%. In addition, in [18], the “tolerability, combination treatment” value is “not well tolerated”; the “tumour burden (luminescence signal)” value is reported as “almost no tumour burden”; the “tumour burden, combination treatment” value was “did not reduce tumour burden as effectively as VSVΔ51 alone”. Moreover, the “serum IFN-, IL-1-α, IL-1β, IL-17, IFN-γ, IL-27, GM-CSF” value in data set [19] is recorded as “statistically significant increases”. In [20], the PD-L1 expression result is reported as “Comparable upregulation”. In data set [21], the tolerability result was “well tolerated” and the “tolerability of combination therapies” value is on record as “well tolerated”. For the same molecule, in data set [21] (po, 50 mg/kg), the “body weight after a single treatment” value is listed as “minimal transient weight loss”.

Consider `CC(C)Cn1cnc2c(N)nc3ccccc3c21` [imiquimod], for which the “bystander death of SMC treated EMT6 cells” value in [22] was “required splenocytes”.

For the molecule IFNα, in [7] (mouse, in vivo), the “tumor growth and survival, single agent” value was “no effect on EMT6 tumor growth or overall survival”. In addition, the “killing of MM cells with SMC” value in data set [23] was “very strong synergistic killing”. In data set [1], the neurotoxicity result is given as “did not result in any overt neurotoxicity” and the “physical or behavioral defects” value was “no overt physical or behavioral defects”.

For the molecule poly(I:C), the “bystander death of SMC treated EMT6 cells” value in data set [22] is “led to EMT6 cell death directly”. The “tumor growth and survival, single agent” value in data set [7] (mouse, in vivo) was “no bearing on tumor growth”. Further, the “TNFα levels from the brain” value in data set [24] was “marked up-regulation”. For the same molecule, the “cell death by brain lysates of treated mice in the presence of SMCs” value in [25] is “enhanced cell death”. In addition, in data set [1], the “physical or behavioral defects” value was “no overt physical or behavioral defects”. For the same molecule, the “toxicity of intracranial administration” value in [21] is listed as “without overt toxicities”.
